{"source": "patent US8647865B2", "about": "“Promiscuous PAP CD4 T cell epitopes” (Dendreon Corporation, priority 2006, dated 2014)", "format_in_all_cases": "cell-based, human", "key": {"[1]": {"test_system": "CD4+ T-cell clone (PAPc66)", "test": "Antigen specificity of T cell clone PAPc66 with autologous EBV-LcL, IFNγ ELISA", "method": "FIG. 1. T cell clone PAPc66 recognizes a naturally processed epitope from PAP. (A) PAP fusion proteins PA2024, CHOPA2024 and hPAPGM and PAP from a baculoviral expression system (iPAP) and mammalian expression system (CHOPAP) were titrated with autologous EBV-LcL and PAPc66. Assay was set up in 96 well round bottom plates with 1×10^5 cells/well of PAPc66, 2×10^5 cells/well EBV-LcL and antigens at 50 μg/mL (black bars), 25 μg/mL (stripe bars) and 12.5 μg/mL (dot bars) in complete RPMI media with 10% FBS. Assay was incubated for 48 hours at 37° C. with 5% CO2 at which time supernatants were harvested and tested for IFNγ by ELISA. (B) To map the specific PAP peptide, chemically synthesized peptides from the PAP sequence were used. These 94 peptides were 15 amino acids in length overlapping by 11 amino acids and were individually tested for the ability to stimulate PAPc66 using autologous EBV-LcL and each peptide at 2 μg/mL in the assay. The assay was set up as in (A) and supernatants were tested for IFNγ by ELISA. […] Supernatants were analyzed for peptide specific IFNγ production by ELISA. […]\n(§1) IFN[…] production was measured using anti-human IFNγ antibody pairs for ELISA (BD Pharmingen, San Diego, Calif.). […] 2M HCl was added to stop the reaction and plates were read for absorbance at 492 nm on a spectrophotometer. […]"}, "[2]": {"test_system": "CD4+ T-cell clone (PAPc66)", "test": "Peptide promiscuity assay: HLA-DRβ1 homozygous EBV-LcL lines present the peptide to PAPc66, IFNγ and granzyme B measured by ELISA", "description": "FIG. 3. PAP257-271 is a promiscuous MHC class II PAP epitope recognized by the T cell clone PAPc66. (A) The peptide, PAP257-271 (RLQGGVLVNNEILNHM; SEQ ID NO:1), recognized by a CD4+ T-cell clone (PAPc66) in the context of MHC class II, is capable of inducing T-cell activation when presented by lymphoblastoid cell lines representing 9 different HLA-DR serological families (β chain; DR1, DR4, DR7, DR8, DR11, DR12, DR13, DR14, DR15) having over 15 distinct HLA-DRβ1 alleles. […] The assay was set up in 96 well round bottom plates with PAPc66 at 1×10^5 cells/well, PAP257-271 at 2 μg/mL and 2×10^5 EBV-LcL per well in complete RPMI+10% FBS. Each HLA-DR[…]EBV-LcL line, homozygous for the HLA-DRβ1 allele shown, was tested for the ability to present PAP257-271 to PAPc66. An irrelevant PAP peptide and no peptide control were also included. After 48-hour incubation at 37° C. and 5% CO2, supernatants were tested for IFNγ and granzyme B (B) by ELISA. Results are shown with background (no peptide) for each EBV-LcL line and PAPc66 subtracted.\nHLA-DRβ1 EBV-LcL lines were purchased from the European Collection of Cell Cultures originating from the 12th International Histocompatibility Workshop (IHW) held in Strasbourg, France. HLA-DR EBV-transformed lymphoblastoid cells were homozygous for the HLA-DRβ1 allele (Table I). EBV-LcL were also generated from various subject PBMC using supernatant from the B95-8 cell line (ATCC, Manassas, Va.) for the expansion and testing of autologous T cell clones.\n(§2) All assays were set up in triplicate in 96-well round bottom plates with antigen or peptide in cRPMI 1640+10% FBS (Fetal Bovine Serum (Invitrogen, Carlsbad, Calif.)), T cell clones at 1×10^5 cells/well and antigen presenting cells at 2×10^5 cells/well. […]\nas §1"}, "[3]": {"test_system": "CD4+ T-cell clone (PAPc66)", "test": "MHC Class II blocking assay with autologous EBV-LcL, IFNγ ELISA", "details": "peptide at 2 μg/mL, 48 hours", "method": "FIG. 2. PAPc661 is MHC class II restricted. PAPc66 was stimulated with autologous EBV-LcL at 2×10^5 cells/mL and PAP257-271 at 2 μg/mL in the presence of MHC Class II blocking antibodies. The assay was set up in 96 well round bottom plates in complete RPMI media +10% FBS with anti-HLA-DR ♦ (Dendreon) and anti-HLA-DP ▪ or anti HLA-DQ ▴ (Leinco Technologies, Inc., St. Louis, […].) at the concentrations shown. Anti-HLA-A2 antibody (∘) was used as a negative control. PAPc66 was added to all wells at 1×10^5 cells/well and the assay was incubated for 48 hours at 37° C. and 5% CO2. After the incubation, supernatants were harvested and tested for IFNγ by ELISA. IFNγ was not detected for conditions without peptide.\nas §2, with “cells/well. Autologous EBV-LcL were used for antigen presenting cells in specificity assays and assays conducted to show peptide promiscuity using the HLA-DRB1 EBV-LcLs. All assays were incubated for 48 hours at 37° C. with 5% CO2.” for “cells/well.”\nas §1"}}, "data": [{"sequence": "RLQGGVLVNEILNHM (residues 257-271 of human prostatic acid phosphatase (PAP), PAP epitope 257-271, Peptide #65, PAP-257-271) [PAP257-271, peptide corresponding to residues 257-271 of the human PAP protein]", "values": [{"measurement": "nature of the epitope recognized by PAPc66 (summary of FIGS. 1-3)", "setting": "[1]", "value": "naturally processed, MHC class II-restricted promiscuous epitope"}, {"measurement": "cytokine production by clone PAPc66 upon activation with the presented peptide", "setting": "[2]; IFNγ and granzyme B ELISA of supernatants", "value": "produce IFNγ and granzyme B upon activation"}, {"measurement": "number of distinct HLA-DRβ1 alleles presenting the peptide with T-cell activation", "setting": "[2]; peptide at 2 μg/mL, 48 hours, EBV-LcL homozygous for the HLA-DRβ1 allele", "value": "over 15"}, {"measurement": "number of different HLA-DR serological families whose lymphoblastoid cell lines present the peptide and induce T-cell activation", "setting": "[2]; peptide at 2 μg/mL, 48 hours, PAPc66 1×10^5 cells/well, 2×10^5 EBV-LcL per well", "value": 9}, {"measurement": "MHC class II restriction of presentation (blocking antibodies anti-HLA-DR, -DP, -DQ)", "setting": "[3]", "value": "presented both in the context of HLA-DR and HLA-DQ"}]}]}
